In patent US11897904B2, “Herbicidally active bicyclic benzamides” (Bayer Aktiengesellschaft, priority 2017, dated 2024):

Columns and labels:
AMARE [1] = assay: Pre-emergence herbicidal action; assay type: in vivo, Amaranthus retroflexus; conditions: scored visually after about 3 weeks vs untreated controls
Source text: (§1) 1. Pre-Emergence Herbicidal Action and Crop Plant Compatibility
(§2) Seeds of monocotyledonous and dicotyledonous weed plants and crop plants are placed in plastic or organic planting pots and covered with soil. The compounds of the invention, formulated in the form of wettable powders (WP) or as emulsion concentrates (EC), are then applied onto the surface of the covering soil as aqueous suspension or emulsion with addition of 0.5% additive at a water application rate of 600 l/ha (converted). After the treatment, the pots are placed in a greenhouse and kept under good growth conditions for the trial plants. After about 3 weeks, the effect of the preparations is scored visually in comparison with untreated controls as percentages. The tables below show the herbicidal activity of numerous compounds according to the invention against important harmful plants. For example, 100% activity=the plants have died, 0% activity=like control plants.

ABUTH [2] = assay: Post-emergence herbicidal action; assay type: in vivo, Abutilon theophrasti; conditions: post-emergence, rated visually after about 3 weeks vs untreated controls
Protocol: (§3) 2. Post-Emergence Herbicidal Action and Crop Plant Compatibility
(§4) Seeds of monocotyledonous and dicotyledonous weeds and crop plants are placed in sandy loam in plastic or organic planting pots, covered with soil and cultivated in a greenhouse under controlled growth conditions. 2 to 3 weeks after sowing, the test plants are treated at the one-leaf stage. The compounds of the invention, formulated in the form of wettable powders (WP) or as emulsion concentrates (EC), are then sprayed onto the green parts of the plants as aqueous suspension or emulsion with addition of 0.5% additive at a water application rate of […] (converted). After the test plants had been kept in the greenhouse under optimum growth conditions for about 3 weeks, the activity of the preparations is rated visually in comparison to untreated controls. The tables below show the herbicidal activity of numerous compounds according to the invention against important harmful plants. For example, 100% activity=the plants have died, 0% activity=like control plants.

ECHCG = assay: Post-emergence herbicidal action; assay type: in vivo, Echinochloa crus-galli; conditions: rated visually after about 3 weeks vs untreated controls
Protocol: as §3, §4

AMARE [3] = assay: Post-emergence herbicidal action; assay type: in vivo, Amaranthus retroflexus; conditions: rated visually after about 3 weeks vs untreated controls
Protocol: as §3, §4

PHBPU = assay: Post-emergence herbicidal action; assay type: in vivo, Ipomoea purpurea; conditions: rated visually after about 3 weeks vs untreated controls
Protocol: as §3, §4

SETVI = assay: Post-emergence herbicidal action; assay type: in vivo, Setaria viridis; conditions: rated visually after about 3 weeks vs untreated controls
Protocol: as §3, §4

VIOTR [4] = assay: Post-emergence herbicidal action; assay type: in vivo, Viola tricolor; conditions: rated visually after about 3 weeks vs untreated controls
Protocol: as §3, §4

VERPE [5] = assay: Post-emergence herbicidal action; assay type: in vivo, Veronica persica; conditions: rated visually after about 3 weeks vs untreated controls
Protocol: as §3, §4

MATIN = assay: Pre-emergence herbicidal action; assay type: in vivo, Matricaria inodora; conditions: pre-emergence, 80 g/ha, scored visually after about 3 weeks vs untreated controls
Source text: as §1, §2

VERPE [6] = assay: Pre-emergence herbicidal action; assay type: in vivo, Veronica persica; conditions: scored visually after about 3 weeks vs untreated controls
Source text: as §1, §2

STEME [7] = assay: Post-emergence herbicidal action; assay type: in vivo, Stellaria media; conditions: rated visually after about 3 weeks vs untreated controls
Protocol: as §3, §4

STEME [8] = assay: Pre-emergence herbicidal action; assay type: in vivo, Stellaria media; conditions: 80 g/ha, scored visually after about 3 weeks vs untreated controls
Source text: as §1, §2

ABUTH [9] = assay: Pre-emergence herbicidal action; assay type: in vivo, Abutilon theophrasti; conditions: pre-emergence, 80 g/ha, scored visually after about 3 weeks vs untreated controls
Source text: as §1, §2

VIOTR [10] = assay: Pre-emergence herbicidal action; assay type: in vivo, Viola tricolor; conditions: 80 g/ha, scored visually after about 3 weeks vs untreated controls
Source text: as §1, §2

For `Cn1nnnc1NC(=O)c1ccc(C(F)F)c2c1OCS2` [Example 2-54], the “herbicidal activity AMARE” value (AMARE [1]; 320 g/ha) was 80%, the “herbicidal activity ABUTH” value (ABUTH [2]; 80 g/ha) was 80% and the “herbicidal activity ECHCG” value (ECHCG; 80 g/ha) was 100%. For the same molecule, the “herbicidal activity AMARE” value (AMARE [3]; 80 g/ha) was 90%, the “herbicidal activity PHBPU” value (PHBPU; 80 g/ha) was 80% and the “herbicidal activity SETVI” value (SETVI; 80 g/ha) was 90%. The “herbicidal activity VIOTR” value (VIOTR [4]; 80 g/ha) was 100% and the “herbicidal activity VERPE” value (VERPE [5]; 80 g/ha) was 90%.
`Cn1nnnc1NC(=O)c1ccc(Cl)c2c1[S+]([O-])CS2` (centres unmarked) [Example 2-254] was tested, and the “herbicidal activity AMARE” value (AMARE [1]; 80 g/ha) was 80%.
`Cn1ncnc1NC(=O)c1ccc(C(F)(F)F)c2c1OC[S+]2[O-]` (centres unmarked) [Example 1-50] was tested, and the “herbicidal activity ABUTH” value (ABUTH [2]; 20 g/ha) was 80%, the “herbicidal activity AMARE” value (AMARE [3]; 20 g/ha) was 80% and the “herbicidal activity VIOTR” value (VIOTR [4]; 20 g/ha) was 80%. The “herbicidal activity MATIN” value (MATIN) was 90%.
With `CSc1ccc(C(=O)Nc2nnnn2C)c2c1SCS2` [Example 2-253] the “herbicidal activity ABUTH” value (ABUTH [2]; 20 g/ha) was 90%.
`Cn1ncnc1NC(=O)c1ccc(C(F)(F)F)c2c1OCS2` [Example 1-35] was tested, and the “herbicidal activity ABUTH” value (ABUTH [2]; 20 g/ha) was 80% and the “herbicidal activity VIOTR” value (VIOTR [4]; 20 g/ha) was 80%.
With `CSc1ccc(C(=O)Nc2nnnn2C)c2c1OC(F)(F)O2` [Example 2-13] the “herbicidal activity ABUTH” value (ABUTH [2]; 80 g/ha) was 80%, the “herbicidal activity AMARE” value (AMARE [3]; 80 g/ha) was 80% and the “herbicidal activity VERPE” value (VERPE [5]; 80 g/ha) was 90%. The “herbicidal activity VERPE” value (VERPE [6]; 320 g/ha) was 90% and the “herbicidal activity STEME” value (STEME [7]; 80 g/ha) was 80%.
In the case of `Cc1ccc(C(=O)Nc2nnnn2C)c2c1SCO2` [Example 2-50], the “herbicidal activity PHBPU” value (PHBPU; 80 g/ha) is reported as 80%.
With `Cn1nnnc1NC(=O)c1ccc(C(F)(F)F)c2c1SCS2` [Example 2-21, 7-(trifluoromethyl)-1,3-benzodithiolane-N-(1-methyltetrazol-5-yl)-4-carboxamide] the “herbicidal activity STEME” value (STEME [8]) was 90%, the “herbicidal activity VIOTR” value (VIOTR [4]; 20 g/ha) was 80% and the “herbicidal activity STEME” value (STEME [7]; 20 g/ha) was 80%.
In the case of `COC1Sc2c(C(=O)Nc3nnnn3C)ccc(C(F)(F)F)c2S1` (centres unmarked) [Example 2-257], the “herbicidal activity ABUTH” value (ABUTH [2]; 20 g/ha) is reported as 90%, the “herbicidal activity ECHCG” value (ECHCG; 20 g/ha) is reported as 100% and the “herbicidal activity VIOTR” value (VIOTR [4]; 20 g/ha) is reported as 80%.
In the case of `Cn1nnnc1NC(=O)c1ccc(C(F)F)c2c1SCS2` [Example 2-22], the “herbicidal activity PHBPU” value (PHBPU; 20 g/ha) is reported as 80% and the “herbicidal activity VIOTR” value (VIOTR [4]; 20 g/ha) is reported as 100%.
`Cn1nnnc1NC(=O)c1ccc(C(F)(F)F)c2c1S(=O)(=O)CS2(=O)=O` [Example 2-43] was tested, and the “herbicidal activity STEME” value (STEME [8]) was 90%, the “herbicidal activity ABUTH” value (ABUTH [9]) was 100% and the “herbicidal activity VIOTR” value (VIOTR [10]) was 100%. For the same molecule, the “herbicidal activity AMARE” value (AMARE [1]; 80 g/ha) was 100%, the “herbicidal activity AMARE” value (AMARE [3]; 20 g/ha) was 80% and the “herbicidal activity VIOTR” value (VIOTR [4]; 20 g/ha) was 90%. For the same molecule, the “herbicidal activity MATIN” value (MATIN) was 80%.
For `Cn1ncnc1NC(=O)c1ccc(C(F)(F)F)c2c1OCS2(=O)=O` [Example 1-65], the “herbicidal activity AMARE” value (AMARE [3]; 20 g/ha) was 80% and the “herbicidal activity PHBPU” value (PHBPU; 20 g/ha) was 80%.
For `CCOC1Oc2c(C(=O)Nc3nnnn3C)ccc(C(F)(F)F)c2S1` (centres unmarked) [Example 2-130], the “herbicidal activity STEME” value (STEME [8]) was 100%, the “herbicidal activity ABUTH” value (ABUTH [9]) was 100% and the “herbicidal activity VIOTR” value (VIOTR [10]) was 100%. The “herbicidal activity ABUTH” value (ABUTH [2]; 20 g/ha) was 90% and the “herbicidal activity VIOTR” value (VIOTR [4]; 20 g/ha) was 90%.
For `Cn1nnnc1NC(=O)c1ccc(S(C)(=O)=O)c2c1OCS2` [Example 2-58], the “herbicidal activity ABUTH” value (ABUTH [2]; 20 g/ha) was 80% and the “herbicidal activity AMARE” value (AMARE [3]; 20 g/ha) was 80%.
`Cn1nnnc1NC(=O)c1ccc(S(C)(=O)=O)c2c1OC(F)(F)O2` [Example 2-15] was tested, and the “herbicidal activity AMARE” value (AMARE [3]; 80 g/ha) was 80% and the “herbicidal activity VERPE” value (VERPE [6]; 320 g/ha) was 90%.
`COC1Oc2c(C(=O)Nc3nnnn3C)ccc(C(F)(F)F)c2S1` (centres unmarked) [Example 2-112, 2-methoxy-4-(trifluoromethyl)-1,3-benzoxathiolane-N-(1-methyltetrazol-5-yl)-7-carboxamide] was tested, and the “herbicidal activity ABUTH” value (ABUTH [9]) was 100%, the “herbicidal activity VIOTR” value (VIOTR [10]) was 100% and the “herbicidal activity AMARE” value (AMARE [1]; 80 g/ha) was 90%. The “herbicidal activity ABUTH” value (ABUTH [2]; 20 g/ha) was 90%, the “herbicidal activity ECHCG” value (ECHCG; 20 g/ha) was 80% and the “herbicidal activity AMARE” value (AMARE [3]; 20 g/ha) was 80%. For the same molecule, the “herbicidal activity SETVI” value (SETVI; 20 g/ha) was 80%, the “herbicidal activity VERPE” value (VERPE [5]; 20 g/ha) was 80% and the “herbicidal activity VERPE” value (VERPE [6]; 80 g/ha) was 80%.
`Cn1nnnc1NC(=O)c1ccc(C(F)(F)F)c2c1SC[S+]2[O-]` (centres unmarked) [Example 2-255] was tested, and the “herbicidal activity VIOTR” value (VIOTR [4]; 20 g/ha) was 80% and the “herbicidal activity STEME” value (STEME [7]; 20 g/ha) was 80%.
